Reference: patent US4363805A, “Aminodesoxy-1.4;3.6-dianhydrohexitol nitrates and pharmaceutical composition” (Firma Willmar Schwabe, priority 1980, dated 1982)

Columns and labels:
[1] = tested on: isolated guinea pig hearts; experiment: Experiments on Langendorff hearts (coronary flowthrough, inotropism, frequency); settings: Cavia porcellus, read-out: flowthrough, percentage change with regard to the initial value
Method: After reaching the stationary state in the 30th minute, the hearts were each perfused with 50 ml. tyrode solution with a content of test substance of, in each case, 25 μg./ml. Each test substance was tested on 3-6 hearts.
In each case, there was measured the inotropism, the flowthrough and the frequency, whereby the values given in Table I are average values of the percentage changes in comparison with the initial values.

female NMRI-albino mice = experiment: Acute toxicity, intravenous, mice; type: in vivo; settings: within 24 hours
[2] = Acute toxicity, intravenous, mice; type: in vivo; settings: mouse, in vivo; intravenous, within 24 hours; read-out: Evaluated LD50-range
mongrel cats = experiment: Inotropic and heart-circulatory effectiveness on narcotised cats, intravenous; type: in vivo, cat; settings: 6 animals; for blood pressure before / dp/dt (inotropism) before / heart frequency before: before administration
narcotised guinea pigs = experiment: Blood pressure experiments on guinea pigs, i.v.; type: in vivo, guinea pig

CCN(CC)[C@H]1CO[C@H]2[C@@H]1OC[C@@H]2O[N+](=O)[O-] [13 b]
activation at 25 µg/mL [1]: 9.05%
Frequency of death (female NMRI-albino mice; 100 mg/kg i.v.): 0/3
Frequency of death (female NMRI-albino mice; 200 mg/kg i.v.): 6/6
LD50 at 24 h [2]: 100 to 200 mg/kg

O=[N+]([O-])O[C@H]1CO[C@H]2[C@@H]1OC[C@@H]2NCc1ccccc1 [Example 25, 5-Benzylamino-5-desoxy-1.4;3.6-dianhydro-L-iditol 2-nitrate]
activation at 25 µg/mL [1]: 47.8%
Frequency of death (female NMRI-albino mice; 100 mg/kg i.v.): 0/3
Frequency of death (female NMRI-albino mice; 200 mg/kg i.v.): 6/6
LD50 at 24 h [2]: 100 to 200 mg/kg

CN(CCCOc1ccccc1)[C@H]1CO[C@H]2[C@@H]1OC[C@@H]2O[N+](=O)[O-] [Example 34, 5-[N-Methyl-N-(3-phenoxypropyl)-amino]-5-desoxy-1.4;3.6-dianhydro-L-iditol 2-nitrate]
blood pressure before (mongrel cats; 0.25 mg/kg i.v.): 95.2 mm.Hg
dp/dt (inotropism) before (mongrel cats; 0.25 mg/kg i.v.): 5333 mm.Hg/sec
heart frequency before (mongrel cats; 0.25 mg/kg i.v.): 180.3 min⁻¹
blood pressure WD (mongrel cats; 0.25 mg/kg i.v.): 4.1 min
blood pressure after (mongrel cats; 0.25 mg/kg i.v.): 73.7 mm.Hg
blood pressure Δ (mongrel cats; 0.25 mg/kg i.v.): -21.5 mm.Hg
dp/dt (inotropism) after (mongrel cats; 0.25 mg/kg i.v.): 4650 mm.Hg/sec
dp/dt (inotropism) Δ (mongrel cats; 0.25 mg/kg i.v.): -683 mm.Hg/sec
dp/dt WD (mongrel cats; 0.25 mg/kg i.v.): 2.8 min
heart frequency after (mongrel cats; 0.25 mg/kg i.v.): 179.3 min⁻¹
heart frequency Δ (mongrel cats; 0.25 mg/kg i.v.): -1.0 min⁻¹
blood pressure WD (mongrel cats; 0.50 mg/kg i.v.): 4.2 min
blood pressure after (mongrel cats; 0.50 mg/kg i.v.): 74.8 mm.Hg
blood pressure Δ (mongrel cats; 0.50 mg/kg i.v.): -24.2 mm.Hg
dp/dt (inotropism) after (mongrel cats; 0.50 mg/kg i.v.): 4683 mm.Hg/sec
dp/dt (inotropism) Δ (mongrel cats; 0.50 mg/kg i.v.): -817 mm.Hg/sec
dp/dt WD (mongrel cats; 0.50 mg/kg i.v.): 3,7 min
heart frequency after (mongrel cats; 0.50 mg/kg i.v.): 178.0 min⁻¹
heart frequency Δ (mongrel cats; 0.50 mg/kg i.v.): -1.0 min⁻¹
blood pressure WD (mongrel cats; 1.00 mg/kg i.v.): 6.5 min
blood pressure after (mongrel cats; 1.00 mg/kg i.v.): 74.5 mm.Hg
blood pressure Δ (mongrel cats; 1.00 mg/kg i.v.): -30.8 mm.Hg
dp/dt (inotropism) after (mongrel cats; 1.00 mg/kg i.v.): 4400 mm.Hg/sec
dp/dt (inotropism) Δ (mongrel cats; 1.00 mg/kg i.v.): -1033 mm.Hg/sec
dp/dt WD (mongrel cats; 1.00 mg/kg i.v.): 4.2 min
heart frequency after (mongrel cats; 1.00 mg/kg i.v.): 172.0 min⁻¹
heart frequency Δ (mongrel cats; 1.00 mg/kg i.v.): -3.0 min⁻¹
blood pressure WD (mongrel cats; 2.50 mg/kg i.v.): > 9.0 min
blood pressure after (mongrel cats; 2.50 mg/kg i.v.): 69.2 mm.Hg
blood pressure Δ (mongrel cats; 2.50 mg/kg i.v.): -39.7 mm.Hg
dp/dt (inotropism) after (mongrel cats; 2.50 mg/kg i.v.): 3850 mm.Hg/sec
dp/dt (inotropism) Δ (mongrel cats; 2.50 mg/kg i.v.): -1450 mm.Hg/sec
dp/dt WD (mongrel cats; 2.50 mg/kg i.v.): > 6.5 min
heart frequency after (mongrel cats; 2.50 mg/kg i.v.): 158.0 min⁻¹
heart frequency Δ (mongrel cats; 2.50 mg/kg i.v.): -15.0 min⁻¹
activation at 25 µg/mL [1]: 50%

O=[N+]([O-])O[C@H]1CO[C@H]2[C@@H]1OC[C@@H]2NCCOc1ccccc1 [Example 35, 5-(2-Phenoxyethylamino)-5-desoxy-1.4;3.6-dianhydro-L-iditol 2-nitrate]
activation at 25 µg/mL [1]: 34%
Frequency of death (female NMRI-albino mice; 100 mg/kg i.v.): 2/6
Frequency of death (female NMRI-albino mice; 200 mg/kg i.v.): 3/3
LD50 at 24 h [2]: ≥ 100 mg/kg

O=[N+]([O-])O[C@H]1CO[C@H]2[C@@H]1OC[C@@H]2NCC(O)COc1cccc2ccccc12 (stereo partly drawn) [Example 54, 5-[2-Hydroxy-3-(1-naphthyloxy)-propylamino]-5-desoxy-1.4;3.6-dianhydro-L-iditol 2-nitrate]
blood pressure before (mongrel cats; 0.25 mg/kg i.v.): 115.2 mm.Hg
dp/dt (inotropism) before (mongrel cats; 0.25 mg/kg i.v.): 8783 mm.Hg/sec
heart frequency before (mongrel cats; 0.25 mg/kg i.v.): 188.7 min⁻¹
blood pressure WD (mongrel cats; 0.25 mg/kg i.v.): 1.9 min
blood pressure after (mongrel cats; 0.25 mg/kg i.v.): 103.8 mm.Hg
blood pressure Δ (mongrel cats; 0.25 mg/kg i.v.): -11.4 mm.Hg
dp/dt (inotropism) after (mongrel cats; 0.25 mg/kg i.v.): 8150 mm.Hg/sec
dp/dt (inotropism) Δ (mongrel cats; 0.25 mg/kg i.v.): -633 mm.Hg/sec
dp/dt WD (mongrel cats; 0.25 mg/kg i.v.): 3.9 min
heart frequency after (mongrel cats; 0.25 mg/kg i.v.): 187.7 min⁻¹
heart frequency Δ (mongrel cats; 0.25 mg/kg i.v.): -1.0 min⁻¹
blood pressure WD (mongrel cats; 0.50 mg/kg i.v.): 3.2 min
blood pressure after (mongrel cats; 0.50 mg/kg i.v.): 101.8 mm.Hg
blood pressure Δ (mongrel cats; 0.50 mg/kg i.v.): -15.9 mm.Hg
dp/dt (inotropism) after (mongrel cats; 0.50 mg/kg i.v.): 6833 mm.Hg/sec
dp/dt (inotropism) Δ (mongrel cats; 0.50 mg/kg i.v.): -1934 mm.Hg/sec
dp/dt WD (mongrel cats; 0.50 mg/kg i.v.): 7.6 min
heart frequency after (mongrel cats; 0.50 mg/kg i.v.): 186.7 min⁻¹
heart frequency Δ (mongrel cats; 0.50 mg/kg i.v.): -0.7 min⁻¹
blood pressure WD (mongrel cats; 1.00 mg/kg i.v.): 5.6 min
blood pressure after (mongrel cats; 1.00 mg/kg i.v.): 91.0 mm.Hg
blood pressure Δ (mongrel cats; 1.00 mg/kg i.v.): -27.8 mm.Hg
dp/dt (inotropism) after (mongrel cats; 1.00 mg/kg i.v.): 5050 mm.Hg/sec
dp/dt (inotropism) Δ (mongrel cats; 1.00 mg/kg i.v.): -3283 mm.Hg/sec
dp/dt WD (mongrel cats; 1.00 mg/kg i.v.): 15.2 min
heart frequency after (mongrel cats; 1.00 mg/kg i.v.): 172.0 min⁻¹
heart frequency Δ (mongrel cats; 1.00 mg/kg i.v.): -12.0 min⁻¹
blood pressure WD (mongrel cats; 2.50 mg/kg i.v.): 6.4 min
blood pressure after (mongrel cats; 2.50 mg/kg i.v.): 78.5 mm.Hg
blood pressure Δ (mongrel cats; 2.50 mg/kg i.v.): -44.8 mm.Hg
dp/dt (inotropism) after (mongrel cats; 2.50 mg/kg i.v.): 2817 mm.Hg/sec
dp/dt (inotropism) Δ (mongrel cats; 2.50 mg/kg i.v.): -5183 mm.Hg/sec
dp/dt WD (mongrel cats; 2.50 mg/kg i.v.): > 10 min
heart frequency after (mongrel cats; 2.50 mg/kg i.v.): 158.3 min⁻¹
heart frequency Δ (mongrel cats; 2.50 mg/kg i.v.): -20.0 min⁻¹
blood pressure after (narcotised guinea pigs; 0.25 mg/kg i.v.): 62.25 ± 8.05 mm.Hg
blood pressure Δ (narcotised guinea pigs; 0.25 mg/kg i.v.): -4.75 mm.Hg
blood pressure before (narcotised guinea pigs; 0.25 mg/kg i.v., before administration): 67.00 ± 4.51 mm.Hg
blood pressure after (narcotised guinea pigs; 1.00 mg/kg i.v.): 56.50 ± 4.97 mm.Hg
blood pressure Δ (narcotised guinea pigs; 1.00 mg/kg i.v.): -10.75 mm.Hg
blood pressure after (narcotised guinea pigs; 2.50 mg/kg i.v.): 44.75 ± 4.50 mm.Hg
blood pressure Δ (narcotised guinea pigs; 2.50 mg/kg i.v.): -23.75 mm.Hg
activation at 25 µg/mL [1]: 274%
